Reference: patent US8212016B2, “NPC1L1 orthologues” (Schering Corporation, priority 2006, dated 2012)
Read-outs that look alike come from different tables or passages of the source.

How the values were obtained:
monkey NPC1L1 [1] = molecular target: T1, monkey NPC1L1 (Macaca mulatta, UniProt A0MJA5); assay: Fluorescence NPC1L1 binding assay, HEK-293 cells, BODIPY-labeled compound 1; set-up: species or system rhesus monkey
Experimental: (§1) Cell Culture and Membrane Preparation. Each plasmid pCR3.1 harboring NPC1L1 was prepared using standard molecular biology protocols. Stable cell lines expressing human, rhesus monkey, mouse, rat, hamster, canine or rabbit NPC1L1 were generated using Lipofectamine 2000 transfection reagent in HEK-293 cells according to the manufacturer's protocol. Cells were maintained in DMEM supplemented with 10% FBS, 100 U/ml pen/strep, and 500 μg/ml geneticin at 37° C., 5% CO2. All cell culture reagents were obtained from Invitrogen Life Technologies, (Carlsbad, Calif.). Cell membranes were prepared by lysing cells in 5 mM HEPES with protease inhibitors (Complete™ Protease Inhibitor Cocktail Tablets; Roche Diagnostics Corp., Indianapolis Ind.) for 15 min at 4° C. A membrane pellet was obtained by centrifuging the cell lysates at 12,000×g for 25 min. The membranes were resuspended in 5 mM HEPES with protease inhibitors and triturated with a 21G needle.
(§2) Fluorescence. Cells were plated into 384-well black/clear plates (BD Biosciences, Bedford Mass.) for binding experiments the following day. The media was aspirated. […] Media (20 μl) containing the indicated concentration of compound was then added to the wells. […] The binding reaction was allowed to proceed for 4 hours at 37° C. Subsequently the media was aspirated and the cells washed once with PBS.

monkey NPC1L1 [2] = molecular target: T1, monkey NPC1L1; assay: Radioligand binding of [3H]-glucuronidated ezetimibe (compound 4) to cell membranes; set-up: species or system rhesus monkey
Experimental: Cell Culture and Membrane Preparation. […] Cells were maintained in DMEM supplemented with 10% FBS, 100 U/ml pen/strep, and 500 μg/ml geneticin at 37° C., 5% CO2. All cell culture reagents were obtained from Invitrogen Life Technologies, (Carlsbad, Calif.). Cell membranes were prepared by lysing cells in 5 mM HEPES with protease inhibitors (Complete™ Protease Inhibitor Cocktail Tablets; Roche Diagnostics Corp., Indianapolis Ind.) for 15 min at 4° C. A membrane pellet was obtained by centrifuging the cell lysates at 12,000×g for 25 min. […] Radioligand. […] Natl. Acad. Sci. […] Reactions were performed in binding buffer (5 mM HEPES, 5.5 mM glucose, 117 mM NaCl and 5.4 mM KCl, pH 7.4). Cell membranes (50 μg in 20 μl) were added to each well. […] Binding reactions were incubated for 2 hours at 37° C. Samples were transferred to Unifilter-96 GF/C plates (Perkin Elmer, Wellesley Mass.) and filtered using a Brandel harvester (Gaithersburg Md.). […] Liquid scintillant (50 μl; Microscint-20, Perkin Elmer, Wellesley Mass.) was added and the bound radioactivity was measured using a microplate scintillation counter.

mouse NPC1L1 = molecular target: T2, mouse NPC1L1 (Mus musculus, UniProt Q6T3U4, N476K); assay: Fluorescence NPC1L1 binding assay, HEK-293 cells, fluorescent compound 2 as ligand
T2 construct: expressed in transfected cells
Experimental: as §1, §2
In an effort to show binding to mouse NPC1L1, several related ezetimibe analogs were examined as possible alternatives to fluorescently-labeled (BODIPY) ezetimibe glucuronide (compound 1) in the binding assay. Compound 2, which is a fluorescently labeled synthetic precursor for fluorescently-labeled (BODIPY) ezetimibe glucuronide (compound 1; Burnett et al., Bioorganic and Medicinal Chemistry Letters 12:315-318 (2002)), was identified as a viable option for detection of mouse NPC1L1 binding. Compound 2 contains a methyl ester substitution for the carboxylic acid on the glucuronide portion of the molecule (compound structures shown in FIG. 4A).

[3] = test system: ^14C-cholesterol absorption; assay: Acute cholesterol absorption assay; assay type: in vivo; details: rat, intraduodenal; read-out: rat ED50, inhibition of cholesterol absorption
Experimental: Acute cholesterol absorption assay. ^14C-cholesterol absorption was determined acutely in rats using conditions previously described (Van Heek et al., J. Pharmacol. Exp. Ther. 283: 157-163 (1997)). Compounds were dissolved in rat bile and delivered (1.0 ml) intraduodenally by bolus injection via an intestinal catheter, followed by 1.0 ml saline rinse (0.9%). Following a 30 min incubation, a cholesterol emulsion containing 3 mg cholesterol and 2 μCi ^14C-cholesterol (3 ml) was delivered to each rat as a bolus via intestinal catheter, followed by 1 ml saline rinse. Animals were sacrificed 90 min later and ^14C-cholesterol levels in plasma, liver, intestinal contents, and intestinal wall were determined.

Ki (monkey NPC1L1 [1]; Monkey NPC1L1, competition with compound 1, read-out: Ki): 92 nM
difference in affinity versus ezetimibe (compound 3) (monkey NPC1L1 [1]; monkey NPC1L1): ~10 fold
Kd (monkey NPC1L1 [2]): 102 nM
Ki (mouse NPC1L1; Mouse NPC1L1, competition with compound 2, read-out: Ki): 9000 nM
Ki (mouse NPC1L1; Table 3, Mouse, read-out: Ki Mouse NPC1L1): 5400 nM
Compound: O=C(O)[C@H]1O[C@@H](Oc2ccc([C@@H]3[C@@H](CC[C@H](O)c4ccc(F)cc4)C(=O)N3c3ccc(F)cc3)cc2)[C@H](O)[C@@H](O)[C@@H]1O [compound 4, glucuronidated ezetimibe]
ED50 [3]: 1.9 µg/kg
